Laboratory results published in patent publication US11596626B2, “Compound for use against pathogenic Neisseria and Haemophilus species and Moraxella catarrhalis” (priority 2017, dated 2023).
Entries after “also recorded” stand apart in the source; their conditions may differ.

Key:
[1] = system: immortalized human vaginal epithelial cells (MS74); assay: MTT assay of metabolic activity (cytotoxicity); type: cell-based; details: FIG. 13
Description: HeLa S3 cells were cultivated in Dulbecco's modified Eagle's medium (DMEM) medium supplemented with 10% fetal calf serum and passaged every 2-3 days. Primary human vaginal epithelial cells (hVEC/MS74) were obtained from A. J. Schaeffer (Feinberg School of Medicine, Northwestern University, Chicago, Ill.) and are derived from vaginal tissue of a post-menopausal person. The cell line was created through immortalization of these cells with human papilloma virus 16, E6 and E7 genes according to literature (N. Rajan et. al., Characterization of an immortalized human vaginal epithelial cell line. J Urol 163, 616-622 (2000)). MS74 were cultured on gelatine-coated cell culture dished using Dulbecco's modified Eagle's medium (DMEM) medium (biochrom) supplemented with 10% fetal calf serum, 1% non-essential amino acids and 1% pyruvate at 37° C. in 5% CO2 and subcultured when half confluency was reached.
All plates were coated overnight at 4° C. with 0.1% gelatine in PBS before use. 2×10^4 HeLa S3 or MS74 cells were incubated with the mentioned concentrations of NQNO in 100 μl of their respective medium and incubated for 2 days at 37° C. and 5% CO2. 10 μl of MTT solution (12 mM in PBS, sterile filtered with […]) were added. The cells were subsequently incubated for 2 h at 37° C. […] 0D550 was measured using a Thermo Fisher Varioskan Flash spectrophotometer.

[2] = system: N. gonorrhoeae; assay: Immunofluorescence staining of upper vaginal tract sections of infected CEAtg mice; type: in vivo, Neisseria gonorrhoeae; details: 20 μl of 50 μM 2 h after infection, tissue 20 h later, FIGS. 8 and 9
Method: 6 to 8 week old, female CEA-transgenic mice were infected with N. gonorrhoeae. 2 h after infection, the animals were treated with 20 μl buffer containing solvent (DMSO) or 50 μM NQNO (Compound represented by the Formula (5)). 20 h later, the genital tract was excised and cryosections were stained for cell nuclei (Hoechst; blue), human CEA (red) and N. gonorrhoeae (gonococci, green) (FIG. 8).
Additional cryosections from the same samples were stained for cell nuclei (Hoechst; blue), human collagen (red) and N. gonorrhoeae (gonococci, green) (FIG. 9).
In particular, in the above experiments the genital tract of infected mice was excised and immediately fixed with 4% paraformaldehyde for at least 24 h. The fixed tissue was sequentially transferred to 10% sucrose, 0.05% cacodylic acid for 1 h at 4° C., to 20% sucrose for 1 h at 4° C., and then into 30% sucrose at 4° C. overnight. Organs were mounted in the embedding medium (Cryo-M-Bed; Bright Instrument, Huntingdon, UK) and frozen at −20° C. 10 μm thick sections were cut at −20° C. using a cryostat (Vacutom HM500, Microm, Germany). Sections were stained with a mouse monoclonal antibody against collagen type IV (clone M3F7; dilution 1:200) together with a polyclonal rabbit antibody against N. gonorrhoeae (dilution 1:100). […]

[3] = system: N. gonorrhoeae; assay: Vaginal colonization of CEAtg female mice, re-isolation of gonococci by swab; type: in vivo, Neisseria gonorrhoeae
Method: By using genetically modified mice (CEA-transgenic; CEAtg mice), which express a human receptor for the gonococcal Opa-adhesin on their mucosal surface, it is possible to study the initial colonization of the upper genital tract by N. gonorrhoeae and to re-isolate these pathogens after intra-vaginal challenge (FIG. 7). 6 to 8 week old, female wildtype (black) or CEA-transgenic (CEAtg, red) mice were infected with N. gonorrhoeae. 2 h after infection, the animals were treated with 20 μl buffer containing solvent (DMSO) or 50 μM NQNO (Compound represented by the Formula (5)). 20 h later, vaginal swaps were taken and plated on selective agar. Each dot refers to bacteria isolated from an individual animal (n≥5) (cf. FIG. 7). […]
In a further experiment, experimental vaginal infection of female mice with N. gonorrhoeae was performed as previously described in the literature (P. Muenzner, V. Bachmann, J. Hentschel, W. Zimmermann, C. R. Hauck, Human-restricted bacterial pathogens block shedding of epithelial cells by stimulating integrin activation. Science 329, 1197-1201 (2010)). […] Serial dilutions of re-isolated bacteria were plated on GC agar containing chloramphenicol (10 μg/ml) and erythromycin (7 μg/ml) and the colonies were counted after 20 h of incubation at 37° C., 5% CO2.

## CCCCCCCCCc1cc(=O)c2ccccc2n1O [NQNO, 1-Hydroxy-2-nonylquinolin-4(1H)-one]
[1]; 50 μM, two days
  Metabolic activity (MTT): only slightly reduced metabolic activity
[1]; up to 25 μM, 2 days
  Cytotoxicity (metabolic activity, MTT): not harmed
[2]
  Gonococci on the mucosal surface (fluorescence microscopy): hardly any gonococci could be detected; also recorded: no gonococci could be detected
[3]; CEAtg female mice, 20 μl of 50 μM topical 2 h after infection, swabs 20 h later, FIG. 7
  Number of re-isolated gonococci (vaginal colonization): significantly (***; p<0.001) reduces the number of re-isolated gonococci; also recorded: completely blocks vaginal colonization
[3]; CEAtg mice, 10 μl of 25 μM or 50 μM intravaginally 1 h after infection, swabs 24 h later, FIG. 15
  Re-isolated gonococci from the genital tract: hardly any gonococci could be re-isolated
